{"source": "patent US11541129B2", "about": "“Nanoreservoir coated medical devices, biomaterials, and bioprosthetics” (Université de Liège, priority 2016, dated 2023)", "system": "platelets", "experiment": "ADP-induced platelet aggregation in PRP (light transmission aggregometry)", "assay_type": "cell-based", "details": "Homo sapiens, 10 μM ADP, 37° C., read-out: IC50 concentration of free ticagrelor, ADP-induced platelet aggregation", "description": "(A) PRP was pre-incubated for 10 min with a solution of nanoreservoir containing increasing concentrations of ticagrelor or with free ticagrelor, as indicated. Platelet aggregation was induced by adding 10 μM ADP at 37° C. under stirring conditions (1200 rpm). Percentages of maximum aggregation recorded by light transmission aggregometry are shown. Data represent means±SD (*p<0.05, **p<0.01, ***p<0.001). (B) Maximum platelet aggregation obtained in the presence of different ratios of ticagrelor-loaded nanogels and minocycline-loaded nanogels. NG: nanogel bearing PEG 1500; NGT: ticagrelor-loaded nanogel bearing PEG 1500; NGM: minocycline-loaded nanogel bearing PEG 1500. Data represent means±SD.\nPlatelet-rich-plasma (PRP) was prepared by centrifugation of citrate anticoagulated human blood at 100×g for 15 min at room temperature. Platelet aggregation experiments were performed on PRP aliquots under stirring (1200 rpm) at 37° C. using light aggregometry (Chrono-Log Model 700 aggregometer, Kordia).\nFor this purpose, 1 ml of nanogel suspensions loaded with increasing concentrations of ticagrelor was centrifuged at 12000 g for 15 minutes, washed 2 times in PBS and resuspended in 300 μL of PBS. 260 μL of platelet-rich-plasma (PRP) was incubated with 10 μL of purified nanogel suspensions for 10 min. Platelet aggregation was then induced by adding 10 μM ADP at 37° C. under stirring conditions. […]"}
{"compound": "CCCSc1nc(N[C@@H]2C[C@H]2c2ccc(F)c(F)c2)c2nnn([C@@H]3C[C@H](OCCO)[C@@H](O)[C@H]3O)c2n1", "note": "[ticagrelor]", "values": [{"measurement": "IC50", "value": 1.8, "unit": "µg/mL"}]}
